Tests used:
[1] = Modulated differential scanning calorimetry (glass transition temperature) of THC/inulin powders; assay type: physicochemical; settings: MDSC
Description: Thermal behaviour of the spray freeze dried powders was determined by modulated differential scanning calorimetry (MDSC) on a differential scanning calorimeter (DSC2920, TA Instruments, Gent, Belgium). A modulation amplitude of 0.318° C., a modulation period of 60 seconds and a heating rate of 2° C./min was used. Calibration was performed with indium. Standard aluminium sample pans were used. During measurement, the sample cell was purged with nitrogen at a flow rate of 35 mL/min. Before scanning, the sample pan was heated at 2° C./min to 50° C. to remove all residual moisture. Subsequently, the sample was cooled to −20° C. and then scanned up to 180° C. The glass transition temperature (Tg) was defined as the inflection point of the change in specific heat in the reversing signal.

[2] = Stability study of THC (HPLC) in climate chambers
Description: To investigate the degradation of pure THC, 20 mL glass vials were charged with 70 μL of a solution of THC in methanol containing 2.52 mg THC. They were left overnight under a flow of dry nitrogen to allow for methanol evaporation. The resulting thin layers of THC spread over the bottom of the vials (4.5 cm^2). Spray freeze dried and freeze dried material containing THC were weighed in vials. All samples were stored in climate chambers of 20° C./45% RH and 60° C./8% RH. Samples (n=3) were taken at different time intervals and analysed by means of HPLC using the method described by van Drooge et al. (Eur. J. Pharm. Sci. 2004, 21, 511-518). Briefly, samples were extracted with methanol. A Waters 717+ autosampler was used to inject 50 μL of supernatant on a precolumn (HPLC precolum inserts, μBondapak C18 Guardpak) followed by a Chrompack Nucleosil 100 C18 column (4.6×250 mm). Absorbance at 214 nm was measured with a UV detector (Shimadzu SPD-M6A). Chromatograms and peak areas were analysed with an integrator (waters 741 Data Module) and Kromasystem 2000 software. The flow rate of the eluens (methanol/water 92/8 (v/v) plus 5 drops concentrated sulphuric acid per litre eluens) was set at 1.0 mL/min. […] In every series of HPLC-runs some calibration samples were included.

## CCCCCc1cc(O)c2c(c1)OC(C)(C)[C@@H]1CCC(C)=C[C@@H]21 [pure THC, Δ^9-tetrahydrocannabinol]
[1]; pure substance
  Tg: 9.3 °C
[1]; spray freeze dried, Tg of THC
  1st Tg (° C.): 9.3 ± 1.0 °C
[2]; exposed to air of 20° C./45% RH
  time to complete degradation: ≤ 50 days
[2]; storage at 60° C./8% RH
  time to complete degradation: ≤ 15 days
